Assay results reported in patent publication US9596849B2, “Composition containing sorbitan monocaprylate and alcohol” (Clariant International Ltd., priority 2009, dated 2017).

How the values were obtained:
Staphylococcus aureus = experiment: Minimum inhibitory concentration and synergistic effect (Kull) against Staphylococcus aureus; format: cell-based; details: for QA (minimum inhibitory concentration of the pure substance A): pure sorbitan monocaprylate
From the text: (§1) Calculation of the synergistic effect according to the formula Qa/QA+Qb/QB=SE (synergistic effect, according to F. C. Kull et al., Applied Microbiology 1961, 9, 538), where Qa=minimum inhibitory concentration of the compound A in % in the mixture used, QA=minimum inhibitory concentration of the pure substance A, Qb=minimum inhibitory concentration of the compound B in % in the mixture used, and QB=minimum inhibitory concentration of the pure substance B.
(§2) Evaluation of the synergistic effect: where an SE>1 is obtained, there is an antagonistic effect; if SE=1, then the compounds are neutral in their behavior toward one another, and if SE<1, there is a synergistic effect.
(§3) Mixtures of sorbitan monocaprylate and phenoxyethanol or benzyl alcohol, in accordance with Examples 1) and 2), were investigated. The results with respect to synergism are set out in Tables A and B. “MIC blend” here is the minimum inhibitory concentration of the respective blend.

Aspergillus brasiliensis = experiment: Minimum inhibitory concentration and synergistic effect (Kull) against Aspergillus brasiliensis; format: cell-based; details: for QA (minimum inhibitory concentration of the pure substance A): pure sorbitan monocaprylate
From the text: as §1, §2, §3

[1] = Table A, sorbitan monocaprylate in 50:50 blend with phenoxyethanol
[2] = Table B, sorbitan monocaprylate in 50:50 blend with benzyl alcohol

Substance: sorbitan monocaprylate
- QA (minimum inhibitory concentration of the pure substance A) (Staphylococcus aureus; Table A): 0.25%
- Qa (minimum inhibitory concentration of compound A in the mixture used) (Staphylococcus aureus; [1]): 0.0315%
- QA (minimum inhibitory concentration of the pure substance A) (Staphylococcus aureus; Table B): 0.25%
- Qa (minimum inhibitory concentration of compound A in the mixture used) (Staphylococcus aureus; [2]): 0.016%
- QA (minimum inhibitory concentration of the pure substance A) (Aspergillus brasiliensis; Table A): 0.016%
- Qa (minimum inhibitory concentration of compound A in the mixture used) (Aspergillus brasiliensis; [1]): 0.004%
- QA (minimum inhibitory concentration of the pure substance A) (Aspergillus brasiliensis; Table B): 0.016%
- Qa (minimum inhibitory concentration of compound A in the mixture used) (Aspergillus brasiliensis; [2]): 0.004%
